Results as given in ChEMBL document CHEMBL1146824, “Synthesis and evaluation of indenopyrazoles as cyclin-dependent kinase inhibitors. Part 4: Heterocycles at C3” (Bioorg Med Chem Lett, 2004).

Columns and labels:
HCT-116 [1] = test: Inhibition of HCT116 cell proliferation in the presence of human serum albumin and alpha-1-acidglycoprotein; assay type: functional, cell-based
AG1523 [2] = test: Inhibition of proliferation AG1523 (human fibroblast) cell line.; assay type: functional, cell-based
HCT-116 [3] = test: Inhibition of HCT116 cellular proliferation; assay type: functional, cell-based; details: Homo sapiens
[4] = biological target: Cyclin-dependent kinase 4/cyclin D1 (Homo sapiens, UniProt P11802); test: Binding affinity for Cyclin-dependent kinase 4-cyclin D1; assay type: protein-complex assay
[5] = Binding affinity for Cyclin-dependent kinase 4-cyclin E
HCT-116 [6] = test: Inhibition of cellular proliferation of HCT116 cell line in the presence of human serum albumin and alpha-1-acidglycoprotein; assay type: functional, cell-based
[7] = biological target: Tyrosine-protein kinase ABL1 (Homo sapiens, UniProt P00519); test: Inhibition of c-Abl tyrosine kinase
L1210 = test: Inhibition of L1210 cell proliferation; assay type: functional, cell-based; details: Mus musculus
HT-1080 = test: Inhibition of HT1080 cell proliferation; assay type: functional, cell-based; details: Homo sapiens
NCI-H460 = test: Inhibition of NCI-H460 cell proliferation; assay type: functional, cell-based; details: Homo sapiens
SKUT-1A = test: Inhibition of Skut 1A cell proliferation; assay type: functional, cell-based; details: Homo sapiens
[8] = biological target: Cyclin-dependent kinase 1/cyclin B (Homo sapiens, UniProt P06493); test: Inhibition of cyclin-dependent kinase 1-cyclin B; assay type: protein-complex assay
AG1523 [9] = test: Inhibition of AG1523 (arrested) cell proliferation; assay type: functional, cell-based; details: Homo sapiens
HMEC = test: Inhibition of HMEC cell proliferation; assay type: functional, cell-based; details: Homo sapiens
B16 = test: Inhibition of B16-F1 cell proliferation; assay type: functional, cell-based; details: Mus musculus
HT-29 = test: Inhibition of HT-29 cell proliferation; assay type: functional, cell-based; details: Homo sapiens
[10] = biological target: Cyclin-dependent kinase 2/cyclin A (Homo sapiens, UniProt P24941); test: Inhibition of Cyclin-dependent kinase 2-cyclin A; assay type: protein-complex assay
MIA PaCa-2 = test: Inhibition of MiaPaCa2 cell proliferation; assay type: functional, cell-based; details: Homo sapiens
NCI-H1299 = test: Inhibition of H1299 cell proliferation; assay type: functional, cell-based; details: Homo sapiens
NCI-H358 = test: Inhibition of NCI-H358 cell proliferation; assay type: functional, cell-based; details: Homo sapiens
MCF7 = test: Inhibition of MCF-7 cell proliferation; assay type: functional, cell-based; details: Homo sapiens
[11] = biological target: cAMP-dependent protein kinase (PKA) (Homo sapiens, UniProt P22694+P17612+P22612); test: Inhibition of protein kinase A; assay type: protein assay
PC-3 = test: Inhibition of PC3 cell proliferation; assay type: functional, cell-based; details: Homo sapiens

Cyclin-dependent kinase 4/cyclin D1, sequence (P11802 whole entry): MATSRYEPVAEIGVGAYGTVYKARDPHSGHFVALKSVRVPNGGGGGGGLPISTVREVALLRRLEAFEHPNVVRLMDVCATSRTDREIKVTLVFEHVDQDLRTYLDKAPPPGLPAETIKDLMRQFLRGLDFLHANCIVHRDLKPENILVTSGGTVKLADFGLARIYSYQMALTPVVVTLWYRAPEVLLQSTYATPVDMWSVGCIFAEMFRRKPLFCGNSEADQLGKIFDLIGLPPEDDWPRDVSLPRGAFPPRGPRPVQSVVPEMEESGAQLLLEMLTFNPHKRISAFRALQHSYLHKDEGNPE
Cyclin-dependent kinase 4/cyclin D1, sequence (P24385 whole entry, further chain): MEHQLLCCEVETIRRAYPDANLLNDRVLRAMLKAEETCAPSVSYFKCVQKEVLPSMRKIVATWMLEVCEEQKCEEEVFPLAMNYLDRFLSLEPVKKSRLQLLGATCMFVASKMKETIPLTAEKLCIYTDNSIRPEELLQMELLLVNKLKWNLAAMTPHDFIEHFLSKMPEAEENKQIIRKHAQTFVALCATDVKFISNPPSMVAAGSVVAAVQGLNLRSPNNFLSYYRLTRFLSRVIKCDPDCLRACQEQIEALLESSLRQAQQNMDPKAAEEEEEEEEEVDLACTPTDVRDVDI
Tyrosine-protein kinase ABL1, sequence (P00519 whole entry): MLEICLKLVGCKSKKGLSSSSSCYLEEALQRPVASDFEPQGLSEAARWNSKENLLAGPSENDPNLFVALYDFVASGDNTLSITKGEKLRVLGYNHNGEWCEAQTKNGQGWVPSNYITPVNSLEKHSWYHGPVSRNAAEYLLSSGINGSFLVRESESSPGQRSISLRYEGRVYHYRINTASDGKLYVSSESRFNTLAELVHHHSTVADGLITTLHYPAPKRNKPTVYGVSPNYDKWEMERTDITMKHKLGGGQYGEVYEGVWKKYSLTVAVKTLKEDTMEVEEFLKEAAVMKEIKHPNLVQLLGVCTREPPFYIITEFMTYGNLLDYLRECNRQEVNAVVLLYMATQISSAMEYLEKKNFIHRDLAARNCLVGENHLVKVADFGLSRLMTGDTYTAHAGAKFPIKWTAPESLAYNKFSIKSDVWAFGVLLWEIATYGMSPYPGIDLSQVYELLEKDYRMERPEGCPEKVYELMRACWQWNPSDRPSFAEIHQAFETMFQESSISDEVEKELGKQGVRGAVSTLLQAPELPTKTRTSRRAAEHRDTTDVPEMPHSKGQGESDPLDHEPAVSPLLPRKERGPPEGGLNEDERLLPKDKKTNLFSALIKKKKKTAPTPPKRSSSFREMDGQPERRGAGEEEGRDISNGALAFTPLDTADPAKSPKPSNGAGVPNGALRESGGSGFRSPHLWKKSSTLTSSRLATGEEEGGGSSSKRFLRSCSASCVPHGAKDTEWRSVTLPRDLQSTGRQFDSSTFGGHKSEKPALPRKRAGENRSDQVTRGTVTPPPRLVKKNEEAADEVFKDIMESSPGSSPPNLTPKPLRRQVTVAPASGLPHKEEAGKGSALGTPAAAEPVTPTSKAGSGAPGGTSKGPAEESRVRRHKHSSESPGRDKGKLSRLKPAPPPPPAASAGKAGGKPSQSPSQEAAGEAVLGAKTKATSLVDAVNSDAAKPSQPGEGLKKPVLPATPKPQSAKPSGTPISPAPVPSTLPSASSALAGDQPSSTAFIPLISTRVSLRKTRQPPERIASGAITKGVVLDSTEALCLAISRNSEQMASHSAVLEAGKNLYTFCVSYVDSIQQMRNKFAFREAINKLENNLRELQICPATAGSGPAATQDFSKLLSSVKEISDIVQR

SMILES | IC50 (AG1523 [2]) | IC50 (HCT-116 [3]) | IC50 [4] | IC50 [5] | other results
CCOC(=O)c1ccc(-c2[nH]nc3c2C(=O)c2c(NC(=O)NN4CCOCC4)cccc2-3)s1 | > 17000 nM | 110 nM | 30 nM | 31 nM | IC50 (HCT-116 [1]): 3200 nM
CCN1CCN(C(=O)c2ccc(-c3[nH]nc4c3C(=O)c3c(NC(=O)NN5CCOCC5)cccc3-4)s2)CC1 | – | 63 nM | 5 nM | 19 nM | IC50 (HCT-116 [6]): 14300 nM
Cc1nc(C)c(-c2[nH]nc3c2C(=O)c2c(NC(=O)NN4CCN(C)CC4)cccc2-3)s1 | > 21000 nM | 14 nM | 46 nM | – | IC50 (HCT-116 [1]): 260 nM; IC50 [7]: 17600 nM; IC50 (L1210): 105 nM; IC50 (HT-1080): 30 nM; IC50 (NCI-H460): 104 nM; IC50 (SKUT-1A): 25 nM; IC50 [8]: 6 nM; IC50 (AG1523 [9]): > 21000 nM; IC50 (HMEC): 55 nM; IC50 (B16): 160 nM; IC50 (HT-29): 87 nM; IC50 [10]: 13 nM; IC50 (MIA PaCa-2): 26 nM; IC50 (NCI-H1299): 12 nM; IC50 (NCI-H358): 18 nM; IC50 (MCF7): 23 nM; IC50 [11]: > 42000 nM; IC50 (PC-3): 125 nM
CN(C)NC(=O)Nc1cccc2c1C(=O)c1c(-c3ccsc3)n[nH]c1-2 | 605 nM | 68 nM | 107 nM | 24 nM | –
O=C(Nc1cccc2c1C(=O)c1c(-c3ccc(C(=O)NCCN4CCOCC4)s3)n[nH]c1-2)NN1CCOCC1 | – | 860 nM | 86 nM | 51 nM | –
CN1CCCN(C(=O)c2ccc(-c3[nH]nc4c3C(=O)c3c(NC(=O)NN5CCOCC5)cccc3-4)s2)CC1 | 63 nM | 19 nM | 4 nM | 15 nM | IC50 (HCT-116 [1]): 870 nM
CN(C)NC(=O)Nc1cccc2c1C(=O)c1c(-c3csc(Cl)c3)n[nH]c1-2 | 615 nM | 64 nM | 21 nM | 7 nM | –
CN(C)NC(=O)Nc1cccc2c1C(=O)c1c(-c3cccs3)n[nH]c1-2 | 905 nM | 75 nM | 340 nM | 36 nM | –
CCOC(=O)c1ccc(-c2[nH]nc3c2C(=O)c2c(NC(=O)NN4CCN(C)CC4)cccc2-3)s1 | – | 46 nM | 30 nM | 36 nM | –
CNC1CCN(C(=O)c2ccc(-c3[nH]nc4c3C(=O)c3c(NC(=O)NN5CCOCC5)cccc3-4)s2)C1 (configuration not stated) | – | 230 nM | 5 nM | 11 nM | IC50 (HCT-116 [1]): 8500 nM
CN(C)CCNC(=O)c1ccc(-c2[nH]nc3c2C(=O)c2c(NC(=O)NN4CCOCC4)cccc2-3)s1 | – | > 800 nM | 15 nM | 21 nM | –
Cc1cc(-c2n[nH]c3c2C(=O)c2c(NC(=O)NN4CCN(C)CC4)cccc2-3)c(C)s1 | 205 nM | 24 nM | 90 nM | 12 nM | –
O=C(Nc1cccc2c1C(=O)c1c(-c3ccc(C(=O)N4CCNCC4)s3)n[nH]c1-2)NN1CCOCC1 | – | 700 nM | 4 nM | 38 nM | IC50 (HCT-116 [6]): 15400 nM
CCOC(=O)c1ccc(-c2[nH]nc3c2C(=O)c2c(NC(=O)NN(C)C)cccc2-3)s1 | 2800 nM | 380 nM | 185 nM | 28 nM | –
Cc1nc(C)c(-c2n[nH]c3c2C(=O)c2c(NC(=O)NN(C)C)cccc2-3)s1 | – | – | 150 nM | 4 nM | –
Cc1cc(-c2n[nH]c3c2C(=O)c2c(NC(=O)NN(C)C)cccc2-3)c(C)s1 | 1500 nM | 110 nM | 515 nM | 26 nM | –
O=C(Nc1cccc2c1C(=O)c1c-2n[nH]c1-c1csc(Cl)c1)NN1CCOCC1 | 385 nM | 35 nM | 7 nM | 10 nM | –

SMILES | IC50 (AG1523 [2]) | IC50 (HCT-116 [3]) | IC50 [4] | IC50 [5] | other results
Cc1ccc(-c2n[nH]c3c2C(=O)c2c(NC(=O)NN(C)C)cccc2-3)s1 | 640 nM | 48 nM | 81 nM | 25 nM | –
O=C(Nc1cccc2c1C(=O)c1c(-c3ccc(C(=O)NCCN4CCCCC4)s3)n[nH]c1-2)NN1CCOCC1 | 255 nM | 20 nM | 22 nM | 31 nM | –
CN1CCN(C(=O)c2ccc(-c3[nH]nc4c3C(=O)c3c(NC(=O)NN5CCOCC5)cccc3-4)s2)CC1 | 485 nM | 110 nM | 10 nM | 32 nM | IC50 (HCT-116 [6]): 9940 nM
CN(C)C1CCN(C(=O)c2ccc(-c3[nH]nc4c3C(=O)c3c(NC(=O)NN5CCOCC5)cccc3-4)s2)CC1 | 1000 nM | 210 nM | 8 nM | 23 nM | IC50 (HCT-116 [6]): > 15100 nM
O=C(Nc1cccc2c1C(=O)c1c(-c3ccc(C(=O)N4CCCCCC4)s3)n[nH]c1-2)NN1CCOCC1 | – | 53 nM | 17 nM | 23 nM | IC50 (HCT-116 [1]): 8320 nM
CN(C)NC(=O)Nc1cccc2c1C(=O)c1c(-c3ccco3)n[nH]c1-2 | – | 160 nM | 635 nM | 26 nM | –
NC1CCN(C(=O)c2ccc(-c3[nH]nc4c3C(=O)c3c(NC(=O)NN5CCOCC5)cccc3-4)s2)C1 (configuration not stated) | – | > 800 nM | 35 nM | 39 nM | –
O=C(Nc1cccc2c1C(=O)c1c(-c3ccc(C(=O)N4CCCNCC4)s3)n[nH]c1-2)NN1CCOCC1 | – | 195 nM | 3 nM | 6 nM | IC50 (HCT-116 [1]): > 19700 nM
CCN1CCCN(C(=O)c2ccc(-c3[nH]nc4c3C(=O)c3c(NC(=O)NN5CCOCC5)cccc3-4)s2)CC1 | – | 33 nM | 7 nM | 14 nM | IC50 (HCT-116 [1]): 7100 nM
CN(C)C1CCCN(C(=O)c2ccc(-c3[nH]nc4c3C(=O)c3c(NC(=O)NN5CCOCC5)cccc3-4)s2)C1 (configuration not stated) | – | 188 nM | 13 nM | 24 nM | IC50 (HCT-116 [6]): 11800 nM
Cc1ccc(-c2[nH]nc3c2C(=O)c2c(NC(=O)NN4CCOCC4)cccc2-3)s1 | 285 nM | 25 nM | 23 nM | 10 nM | –
COc1ccc(-c2[nH]nc3c2C(=O)c2c(NC(=O)NN(C)C)cccc2-3)s1 | 1550 nM | 130 nM | 84 nM | 32 nM | –
Cc1nc(C)c(-c2[nH]nc3c2C(=O)c2c(NC(=O)NN4CCOCC4)cccc2-3)s1 | > 19000 nM | 8 nM | > 370 nM | 9 nM | IC50 (HCT-116 [1]): 500 nM
O=C(Nc1cccc2c1C(=O)c1c(-c3ccc(C(=O)N4CCCCC4)s3)n[nH]c1-2)NN1CCOCC1 | – | 52 nM | 22 nM | 25 nM | IC50 (HCT-116 [6]): 16800 nM
Cc1cc(-c2[nH]nc3c2C(=O)c2c(NC(=O)NN4CCOCC4)cccc2-3)c(C)s1 | 345 nM | 25 nM | 125 nM | < 8 nM | –
O=C(Nc1cccc2c1C(=O)c1c(-c3ccc(C(=O)NCCN4CCCC4)s3)n[nH]c1-2)NN1CCOCC1 | 680 nM | 475 nM | 23 nM | 25 nM | –
CN(C)C1CCN(C(=O)c2ccc(-c3[nH]nc4c3C(=O)c3c(NC(=O)NN5CCOCC5)cccc3-4)s2)C1 (configuration not stated) | 330 nM | 64 nM | 12 nM | 44 nM | IC50 (HCT-116 [1]): 2540 nM
